Data taken from ChEMBL document CHEMBL4507268 (2021).

Columns and labels:
[1] = test system: Tyrosine-protein kinase ABL1 (Homo sapiens), P00519 [M351T]; conditions: Compound concentration 1000.0 nM
[2] = molecular target: Serine/threonine-protein kinase Nek10 (Homo sapiens) (UniProt Q6ZWH5); conditions: Compound concentration 1000.0 nM
[3] = molecular target: T1, Testis-specific serine/threonine-protein kinase 3 (Homo sapiens) (UniProt Q96PN8); conditions: Compound concentration 1000.0 nM
T1 sequence (whole entry): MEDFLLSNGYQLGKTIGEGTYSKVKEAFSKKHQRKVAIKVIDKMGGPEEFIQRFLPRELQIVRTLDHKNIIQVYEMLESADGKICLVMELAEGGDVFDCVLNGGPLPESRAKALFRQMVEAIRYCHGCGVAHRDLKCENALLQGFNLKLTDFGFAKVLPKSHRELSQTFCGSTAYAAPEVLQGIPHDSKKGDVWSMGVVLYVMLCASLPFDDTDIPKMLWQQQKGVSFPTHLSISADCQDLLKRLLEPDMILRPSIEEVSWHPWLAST

[4] = molecular target: Mitogen-activated protein kinase kinase kinase 10 (Homo sapiens) (UniProt Q02779); conditions: Compound concentration 1000.0 nM
[5] = molecular target: 5-hydroxytryptamine receptor 1B (Homo sapiens) (UniProt P28222); conditions: Compound concentration 10.0 uM
Chain of 5-hydroxytryptamine receptor 1B (Homo sapiens) (P28222 whole entry): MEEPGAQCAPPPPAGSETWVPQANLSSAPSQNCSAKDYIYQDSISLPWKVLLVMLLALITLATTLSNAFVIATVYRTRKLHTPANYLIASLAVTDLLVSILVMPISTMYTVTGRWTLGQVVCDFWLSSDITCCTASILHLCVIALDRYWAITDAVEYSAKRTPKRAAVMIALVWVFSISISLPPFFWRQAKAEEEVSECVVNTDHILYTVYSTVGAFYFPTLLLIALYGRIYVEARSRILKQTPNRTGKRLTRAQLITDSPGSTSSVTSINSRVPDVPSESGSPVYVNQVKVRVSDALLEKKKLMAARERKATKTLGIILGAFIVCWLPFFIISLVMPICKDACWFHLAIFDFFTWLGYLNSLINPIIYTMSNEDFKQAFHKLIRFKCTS

[6] = molecular target: T2, Ephrin type-B receptor 4 (Homo sapiens) (UniProt P54760); conditions: Compound concentration 1000.0 nM
T2 sequence (whole entry): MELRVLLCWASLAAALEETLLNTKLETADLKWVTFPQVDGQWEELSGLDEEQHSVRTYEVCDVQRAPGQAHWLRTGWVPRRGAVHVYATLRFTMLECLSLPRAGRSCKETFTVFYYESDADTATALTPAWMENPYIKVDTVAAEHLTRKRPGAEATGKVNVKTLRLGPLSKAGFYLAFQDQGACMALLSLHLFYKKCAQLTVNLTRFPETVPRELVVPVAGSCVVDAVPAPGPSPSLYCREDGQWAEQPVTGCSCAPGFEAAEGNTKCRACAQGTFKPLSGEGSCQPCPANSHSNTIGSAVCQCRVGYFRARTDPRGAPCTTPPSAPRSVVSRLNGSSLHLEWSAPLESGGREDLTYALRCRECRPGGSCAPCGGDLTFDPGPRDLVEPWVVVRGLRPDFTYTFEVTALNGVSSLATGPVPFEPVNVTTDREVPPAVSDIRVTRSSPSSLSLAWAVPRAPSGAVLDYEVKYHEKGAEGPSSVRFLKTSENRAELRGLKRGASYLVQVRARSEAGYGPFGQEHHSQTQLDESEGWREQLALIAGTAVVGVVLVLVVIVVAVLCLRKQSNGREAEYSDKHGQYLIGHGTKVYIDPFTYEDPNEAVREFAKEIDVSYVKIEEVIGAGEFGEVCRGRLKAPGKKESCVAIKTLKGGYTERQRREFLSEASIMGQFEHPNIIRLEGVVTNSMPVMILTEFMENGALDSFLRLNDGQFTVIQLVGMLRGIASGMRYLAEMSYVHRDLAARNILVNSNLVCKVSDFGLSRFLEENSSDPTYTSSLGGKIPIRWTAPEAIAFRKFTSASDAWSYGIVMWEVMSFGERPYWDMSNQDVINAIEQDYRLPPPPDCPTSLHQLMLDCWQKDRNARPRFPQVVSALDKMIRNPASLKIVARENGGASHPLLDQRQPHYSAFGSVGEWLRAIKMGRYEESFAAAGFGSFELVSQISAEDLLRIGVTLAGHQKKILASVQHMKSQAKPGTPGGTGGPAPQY

[7] = molecular target: T3, cGMP-dependent protein kinase 2 (Homo sapiens) (UniProt Q13237); conditions: Compound concentration 1000.0 nM
T3 sequence (whole entry): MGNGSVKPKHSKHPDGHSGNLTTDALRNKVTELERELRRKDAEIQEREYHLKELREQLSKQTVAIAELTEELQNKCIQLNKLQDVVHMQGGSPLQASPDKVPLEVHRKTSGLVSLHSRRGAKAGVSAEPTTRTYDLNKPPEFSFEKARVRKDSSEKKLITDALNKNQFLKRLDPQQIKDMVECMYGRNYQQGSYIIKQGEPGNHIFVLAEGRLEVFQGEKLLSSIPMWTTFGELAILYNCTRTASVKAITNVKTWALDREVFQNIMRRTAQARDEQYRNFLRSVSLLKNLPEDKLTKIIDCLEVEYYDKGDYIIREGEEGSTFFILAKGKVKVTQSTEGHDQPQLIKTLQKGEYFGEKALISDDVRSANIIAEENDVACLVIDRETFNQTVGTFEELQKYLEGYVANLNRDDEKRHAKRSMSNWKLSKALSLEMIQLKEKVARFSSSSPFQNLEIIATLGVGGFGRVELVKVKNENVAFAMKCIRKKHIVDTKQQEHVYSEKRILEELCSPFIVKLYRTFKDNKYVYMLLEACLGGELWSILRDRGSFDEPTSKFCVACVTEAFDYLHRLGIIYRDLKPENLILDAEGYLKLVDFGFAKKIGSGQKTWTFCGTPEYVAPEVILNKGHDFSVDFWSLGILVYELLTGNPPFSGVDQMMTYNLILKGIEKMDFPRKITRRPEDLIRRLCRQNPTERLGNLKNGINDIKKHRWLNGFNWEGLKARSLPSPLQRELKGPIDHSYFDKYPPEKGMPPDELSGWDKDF

[8] = molecular target: Serine/threonine-protein kinase MRCK beta (Homo sapiens) (UniProt Q9Y5S2); conditions: Compound concentration 1000.0 nM
Chain of Serine/threonine-protein kinase MRCK beta (Homo sapiens) (Q9Y5S2 whole entry): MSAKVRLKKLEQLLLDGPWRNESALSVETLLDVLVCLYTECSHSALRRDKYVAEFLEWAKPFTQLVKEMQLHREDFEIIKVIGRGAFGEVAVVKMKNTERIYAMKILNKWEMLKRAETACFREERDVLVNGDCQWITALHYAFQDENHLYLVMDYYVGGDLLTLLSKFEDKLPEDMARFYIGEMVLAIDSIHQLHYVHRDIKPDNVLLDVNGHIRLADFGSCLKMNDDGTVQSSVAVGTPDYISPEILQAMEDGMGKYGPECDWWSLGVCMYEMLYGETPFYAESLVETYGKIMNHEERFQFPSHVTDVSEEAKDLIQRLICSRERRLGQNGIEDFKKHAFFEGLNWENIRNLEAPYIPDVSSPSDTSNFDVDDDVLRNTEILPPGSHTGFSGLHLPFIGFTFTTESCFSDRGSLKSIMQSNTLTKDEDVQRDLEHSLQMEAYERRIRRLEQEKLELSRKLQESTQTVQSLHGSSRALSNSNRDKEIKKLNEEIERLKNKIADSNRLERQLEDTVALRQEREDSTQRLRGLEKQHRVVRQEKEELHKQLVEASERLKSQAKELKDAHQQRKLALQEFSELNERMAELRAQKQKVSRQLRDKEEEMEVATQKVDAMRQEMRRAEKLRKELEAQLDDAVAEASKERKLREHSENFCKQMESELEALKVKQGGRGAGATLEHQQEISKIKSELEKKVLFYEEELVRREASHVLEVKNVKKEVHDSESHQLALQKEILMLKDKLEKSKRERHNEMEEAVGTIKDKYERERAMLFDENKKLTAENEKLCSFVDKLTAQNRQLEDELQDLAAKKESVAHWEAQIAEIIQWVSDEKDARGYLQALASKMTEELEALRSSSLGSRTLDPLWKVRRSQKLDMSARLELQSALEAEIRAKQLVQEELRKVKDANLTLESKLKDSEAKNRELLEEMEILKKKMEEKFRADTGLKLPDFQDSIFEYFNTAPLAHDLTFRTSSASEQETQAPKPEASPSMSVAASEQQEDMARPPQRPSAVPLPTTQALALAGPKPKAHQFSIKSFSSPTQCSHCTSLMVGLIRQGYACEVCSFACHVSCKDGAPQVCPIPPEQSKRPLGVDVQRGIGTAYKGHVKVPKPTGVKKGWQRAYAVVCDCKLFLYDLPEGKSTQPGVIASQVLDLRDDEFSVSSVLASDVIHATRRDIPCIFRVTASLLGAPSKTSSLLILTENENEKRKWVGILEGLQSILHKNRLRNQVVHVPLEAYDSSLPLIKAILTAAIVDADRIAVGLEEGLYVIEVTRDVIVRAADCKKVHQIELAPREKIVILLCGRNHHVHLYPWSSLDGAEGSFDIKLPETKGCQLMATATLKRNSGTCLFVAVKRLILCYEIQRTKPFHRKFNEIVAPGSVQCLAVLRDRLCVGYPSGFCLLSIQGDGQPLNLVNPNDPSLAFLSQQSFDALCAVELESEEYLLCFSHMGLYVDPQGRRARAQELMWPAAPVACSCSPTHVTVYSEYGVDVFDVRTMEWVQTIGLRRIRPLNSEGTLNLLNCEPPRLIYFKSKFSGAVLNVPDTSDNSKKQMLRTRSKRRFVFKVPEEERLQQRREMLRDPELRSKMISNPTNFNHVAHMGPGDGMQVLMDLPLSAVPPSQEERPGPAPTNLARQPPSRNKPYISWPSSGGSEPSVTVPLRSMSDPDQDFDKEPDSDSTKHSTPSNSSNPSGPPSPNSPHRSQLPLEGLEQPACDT

[9] = test system: Hepatocyte growth factor receptor (Homo sapiens), P08581 [Y1235D]; conditions: Compound concentration 1000.0 nM
[10] = molecular target: Non-receptor tyrosine-protein kinase TYK2 (Homo sapiens) (UniProt P29597); conditions: Compound concentration 1000.0 nM
Chain of Non-receptor tyrosine-protein kinase TYK2 (Homo sapiens) (P29597 whole entry): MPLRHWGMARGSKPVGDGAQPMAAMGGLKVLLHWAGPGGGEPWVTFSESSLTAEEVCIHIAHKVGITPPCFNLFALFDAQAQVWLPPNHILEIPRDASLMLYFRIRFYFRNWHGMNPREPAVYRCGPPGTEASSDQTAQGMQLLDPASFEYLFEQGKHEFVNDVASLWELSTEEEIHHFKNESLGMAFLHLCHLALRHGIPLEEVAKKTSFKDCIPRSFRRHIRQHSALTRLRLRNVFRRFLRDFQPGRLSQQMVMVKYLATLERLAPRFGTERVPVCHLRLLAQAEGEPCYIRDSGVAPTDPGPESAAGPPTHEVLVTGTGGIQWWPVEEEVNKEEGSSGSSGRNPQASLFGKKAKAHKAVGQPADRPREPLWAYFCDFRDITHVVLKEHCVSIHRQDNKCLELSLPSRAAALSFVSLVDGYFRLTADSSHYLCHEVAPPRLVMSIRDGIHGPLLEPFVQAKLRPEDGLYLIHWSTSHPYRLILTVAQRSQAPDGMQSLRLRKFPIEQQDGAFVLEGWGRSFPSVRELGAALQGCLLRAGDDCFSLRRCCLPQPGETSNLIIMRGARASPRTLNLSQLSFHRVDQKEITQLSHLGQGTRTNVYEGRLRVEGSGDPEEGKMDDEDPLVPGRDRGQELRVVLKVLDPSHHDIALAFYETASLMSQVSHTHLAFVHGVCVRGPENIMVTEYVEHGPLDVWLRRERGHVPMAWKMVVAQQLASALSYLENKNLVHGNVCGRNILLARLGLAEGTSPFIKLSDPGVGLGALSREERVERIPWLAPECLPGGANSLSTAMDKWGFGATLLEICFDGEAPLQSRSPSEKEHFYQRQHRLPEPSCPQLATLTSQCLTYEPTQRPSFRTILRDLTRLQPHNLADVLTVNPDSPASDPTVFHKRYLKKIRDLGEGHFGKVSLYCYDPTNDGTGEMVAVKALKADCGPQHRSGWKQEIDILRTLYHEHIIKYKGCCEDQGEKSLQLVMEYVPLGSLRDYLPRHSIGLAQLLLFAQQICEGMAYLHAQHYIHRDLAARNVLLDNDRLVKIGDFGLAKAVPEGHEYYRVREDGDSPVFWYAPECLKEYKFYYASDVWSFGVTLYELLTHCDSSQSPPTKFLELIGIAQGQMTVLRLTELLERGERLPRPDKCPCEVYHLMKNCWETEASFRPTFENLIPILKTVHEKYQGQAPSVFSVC

[11] = molecular target: Mitogen-activated protein kinase kinase kinase 4 (Homo sapiens) (UniProt Q9Y6R4); conditions: Compound concentration 1000.0 nM

Chain of Serine/threonine-protein kinase Nek10 (Homo sapiens) (Q6ZWH5 whole entry): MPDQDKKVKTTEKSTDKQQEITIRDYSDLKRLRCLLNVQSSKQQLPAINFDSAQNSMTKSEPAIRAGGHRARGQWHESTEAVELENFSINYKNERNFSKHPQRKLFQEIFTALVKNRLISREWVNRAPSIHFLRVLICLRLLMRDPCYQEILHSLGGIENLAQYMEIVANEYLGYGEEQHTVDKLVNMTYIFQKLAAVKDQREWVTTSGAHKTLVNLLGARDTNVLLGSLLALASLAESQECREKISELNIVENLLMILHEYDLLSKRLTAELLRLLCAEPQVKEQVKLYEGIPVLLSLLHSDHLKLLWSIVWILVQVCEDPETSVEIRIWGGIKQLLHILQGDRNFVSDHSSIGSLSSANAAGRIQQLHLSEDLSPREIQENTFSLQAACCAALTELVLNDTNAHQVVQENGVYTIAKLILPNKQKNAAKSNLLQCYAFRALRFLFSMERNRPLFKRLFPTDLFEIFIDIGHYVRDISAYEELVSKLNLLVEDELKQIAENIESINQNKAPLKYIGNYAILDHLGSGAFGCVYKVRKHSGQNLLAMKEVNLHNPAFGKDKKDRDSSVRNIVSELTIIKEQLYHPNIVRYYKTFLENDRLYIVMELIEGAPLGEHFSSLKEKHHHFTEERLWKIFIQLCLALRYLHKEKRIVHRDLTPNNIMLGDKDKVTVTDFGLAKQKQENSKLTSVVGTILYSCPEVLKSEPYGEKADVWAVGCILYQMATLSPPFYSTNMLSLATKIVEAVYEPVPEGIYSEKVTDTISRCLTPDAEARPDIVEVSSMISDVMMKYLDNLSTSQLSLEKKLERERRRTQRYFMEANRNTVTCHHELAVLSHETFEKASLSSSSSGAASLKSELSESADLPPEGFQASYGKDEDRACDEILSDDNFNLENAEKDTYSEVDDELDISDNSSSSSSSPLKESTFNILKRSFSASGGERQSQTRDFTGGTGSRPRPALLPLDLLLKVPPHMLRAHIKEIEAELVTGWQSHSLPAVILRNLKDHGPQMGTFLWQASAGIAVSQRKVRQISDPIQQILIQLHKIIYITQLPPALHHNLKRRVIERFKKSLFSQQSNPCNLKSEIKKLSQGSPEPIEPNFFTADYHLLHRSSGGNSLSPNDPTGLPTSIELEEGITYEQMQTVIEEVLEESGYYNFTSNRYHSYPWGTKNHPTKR

Cc1nc(C2CCN(C(=O)c3ccc(OC(F)(F)F)cc3N)CC2)c2ncc(N3CCN(C)CC3)cc2n1 [BAY-693]
inactive: residual activity [1] 100% | residual activity [2] 100% | residual activity [3] 100% | residual activity [4] 100% | inhibition [5] 14.6% | residual activity [6] 92% | residual activity [7] 74% | residual activity [8] 100% | residual activity [9] 98% | residual activity [10] 88% | residual activity [11] 100%

CN1CCN(c2cnc3c(C4CCN(C(=O)c5ccc(OC(F)(F)F)cc5N)CC4)ncnc3c2)CC1 [BAY-885]
inactive: residual activity [1] 100% | residual activity [2] 100% | residual activity [3] 68% | residual activity [4] 100% | inhibition [5] 14.9% | residual activity [6] 100% | residual activity [7] 77% | residual activity [8] 100% | residual activity [9] 73% | residual activity [10] 100% | residual activity [11] 95%
